The record followed here is US20210315826A1, “NATURAL FLUORESCENT POLYDEDRAL AMINO ACID CRYSTALS FOR EFFICIENT ENTRAPMENT AND SYSTEMIC DELIVERY OF HYDROPHOBIC SMALL MOLECULES” (CORNELL UNIVERSITY, priority 2018, published 2021).

This data set in a line: Entrapment efficiency of small molecules in L-His crystals (HPLC of supernatant). The note with it: within L-His crystals; determined by HPLC. Format: physicochemical. The procedure: A 30 mg/mL solution of L-His (>99%, Sigma-Aldrich) was prepared by dissolving L-His powder in milli-Q water using a vortex mixer at ambient temperature in a Corning® 15 mL centrifuge tube with a closed cap. Then 500 μL of the aqueous solution of L-His and 500 μL of 200 proof ethanol (KOPTEC, PA, US) was added to 200 μL of the small molecule solution (2 mg/mL). The small molecules used in this study were Nile red (>98%, Sigma-Aldrich), pyrene (>98%, Sigma-Aldrich), β-carotene (>97%, Sigma-Aldrich), and doxorubicin HCl (DOX, >98%, Fluka, Mexico City, Mexico). The solution was vortexed for 15 seconds and kept static at ambient temperature. After 3 hours, crystals were collected and washed with ethanol to remove the free small molecules from the surface of the crystals and the supernatant was collected to measure the concentration of non-entrapped small molecules using HPLC. […] Each individual sample of small molecules was quantified based on an optimized method reported in the literature for β-carotene (Etzbach et al., “Characterization of Carotenoid Profiles in Goldenberry (Physalis peruviana L.) Fruits at Various Ripening Stages and in Different Plant Tissues by HPLC-DAD-APCI-MS^n,” Food Chem. 245:508-517 (2018), which is hereby incorporated by reference in its entirety), Nile red (Wu et al., “Drug Delivery to the Skin from Sub-Micron Polymeric Particle Formulations: Influence of Particle Size and Polymer Hydrophobicity,” Pharm Res. 26(8):1995-2001 (2009), which is hereby incorporated by reference in its entirety), pyrene (Jia et al., “Effect of Root Exudates on the Mobility of Pyrene in Mangrove Sediment-Water System,” Catena 162:396-401 (2017), which is hereby incorporated by reference in its entirety), and DOX (Chi et al., “Redox-Sensitive and Hyaluronic Acid Functionalized Liposomes for Cytoplasmic Drug Delivery to Osteosarcoma in Animal Models,” J. Control Release 261:113-125 (2017), which is hereby incorporated by reference in its entirety). […]
On to `CCN(CC)c1ccc2nc3c4ccccc4c(=O)cc-3oc2c1` [Nile red], for which the Entrapment efficiency is 62%.
Compound `c1cc2ccc3cccc4ccc(c1)c2c34` [pyrene] showed an Entrapment efficiency of 87%.
On to `CC1=C(/C=C/C(C)=C/C=C/C(C)=C/C=C/C=C(C)/C=C/C=C(C)/C=C/C2=C(C)CCCC2(C)C)C(C)(C)CCC1` [β-carotene], for which the Entrapment efficiency is recorded as around 96%.
